Source: patent US7855228B2, “Antibiotics targeting MreB” (The Board of Trustees of the Leland Stamford Junior …, priority 2005, dated 2010)
Converted amounts (≈) assume the structure as drawn. “Also recorded” adds a separate entry of the source. Like-named read-outs stand apart in the source and are kept apart here.

How the values were obtained:
P. putida NBRC14164 = experiment: Determination of minimum inhibitory concentration (MIC); type: cell-based, Pseudomonas putida; conditions: Pseudomonas putida, read-out: MIC P. putida
Procedure, shortened: (§1)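 Two-fold serial agar dilution on L agar and also on Mueller Hinton agar (pH 7.3); 10 µl of stationary-phase culture diluted in 0.85% NaCl to 10^6 cells/ml spotted per plate. MIC taken as lowest concentration inhibiting growth.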

[1] = system: S. aureus subsp. aureus NBRC15035; experiment: as above; type: cell-based, Staphylococcus aureus; conditions: Staphylococcus aureus, read-out: MIC S. aureus
Procedure, shortened: as §1

Caulobacter = Caulobacter morphology (DIC images); type: cell-based, Caulobacter crescentus
Text: Consistent with previous observations in E. coli (Iwai et al., 2002), A22 caused a dose-dependent alteration of Caulobacter morphology, transforming normal, crescent-shaped cells into rounded, lemon-shaped cells. The progression of cell shape deformation by A22 treatment was qualitatively similar to that caused by mreB depletion, though the A22 effect was more rapid (FIGS. […]). […] For example, A22 could disrupt the localization of new cell wall synthesis but have no effect on the existing cell wall, such that without additional growth and wall synthesis A22's effects cannot be perceived. A dependence on cell growth could also explain why A22's effect on morphology takes several hours to manifest.
(§2) Microscopy and Timelapse Imaging. All experiments other than the A22 flow-cell analysis were performed by mounting the samples on 1% agarose pads as described, with the appropriate concentration of A22 added to the agarose. The rates of origin-distal locus segregation were determined by inducing PxyI:lacI:cfp expression with 0.03% xylose for 75 min, isolating swarmer cells, and growing the swarmer cells in M2G liquid medium for 50 min. After 50 min, 10 μg/ml of A22 was added to these liquid cultures, they were mounted onto 1% M2G agarose pads containing 10 μg/ml A22, and a phase and CFP fluorescence image was captured every 2 min for 60 min. The images were analyzed by previously described software to determine the average position and rate of movement of the observed foci.

[2] = system: Caulobacter chromosomal loci (origin, origin-distal loci); experiment: Chromosome segregation of FROS-labeled loci; type: cell-based, Caulobacter crescentus
Text: A22 Treatment Blocks Chromosome Segregation. Having established that A22 targets MreB and rapidly disrupts its localization, we used A22 to assess the acute role of MreB in chromosome segregation. To this end we took advantage of strains previously generated in our group that use the fluorescent repressor-operator system (FROS) to simultaneously label two specific chromosomal loci in the same living cell. This system uses fusions of two DNA binding proteins, the lac repressor (LacI) and the Tet repressor (tetR), to CFP and YFP, respectively. Two arrays, each containing multiple tandem repeats of either the LacI or TetR binding sites, are integrated into different chromosomal loci. Each fusion protein clusters at its respective array, causing the cellular address of that array to fluoresce in a detectable fashion.
Synchronized swarmer cells with lac arrays at the origin locus and tet arrays at the midcell-positioned CC2943 locus (FIG. 5A) were incubated with 10 μg/ml A22. After varying periods of time in the presence of A22, the cellular positions of the origin and CC2943 were examined by fluorescence microscopy. The cultures continued to increase in cell mass, as measured by an increase in optical density, but cell division was blocked. […] This effect was reversible, since upon washing out the A22 drug, the origins were rapidly and normally segregated.
Treatment of swarmer cells with A22 before the origins have segregated blocks the movement of chromosomal loci. […]
Though origin-distal loci can separate in the presence of A22, MreB could still partially contribute to their cellular positioning and rate of movement across the cell. Technical considerations prevent the quantitative analysis of locus movement in doubly labeled cells. Thus, to quantitatively assess the role of MreB in origin-distal locus segregation, we examined two singly labeled strains, one with CC0786 marked at 860 kb to the right of the origin, and one with CC3192 marked at 576 kb to the left of the origin. […] The timelapses were analyzed using automated software that provides the absolute position of each locus in each cell. […]
as §2, with “All experiments other than the A22 flow-cell analysis were performed by mounting the samples on 1% agarose pads as described, with the appropriate concentration of A22 added to the agarose.” left out

[3] = system: Caulobacter DNA replication; experiment: Analysis of DNA replication (32P-labeled dGTP incorporation, DNA-content FACS); type: cell-based, Caulobacter crescentus
Text: We first examined the incorporation of radiolabeled dGTP into DNA, which linearly correlates with the rate of DNA replication. […] To assess the effect of A22 on DNA replication during the cell cycle, the radiolabeled nucleotide incorporation assay was repeated using synchronized cultures at different points in the cell cycle. Untreated cells display a dramatic rise in radioactivity levels characteristic of DNA replication initiation at the swarmer-to-stalked cell transition. This rise in radioactivity levels was also observed in A22-treated cells (FIG. 6A).
Finally, we examined the DNA content of A22-treated cells by FACS.
Analysis of DNA Replication. DNA replication was assessed by incorporation of 32P-labeled dGTP) or chromomycin-stained DNA-content FACS analysis as described previously.

E. coli cells = experiment: Cell lysis; type: cell-based
Text: To facilitate the isolation of A22-resistant mutants a PBP 1B-defective (ponB^−) mutant strain, JST975, which forms a clear growth inhibitory zone upon A22 treatment, was selected as the parent strain in our screen. […] This correlates well with the increased sensitivity of mreB mutant strains to β-lactam antibiotics. In future screens for antibacterial agents derived from A22, it will be important to consider that the antibacterial effect of A22 on wild-type E. coli cells may be enhanced by simultaneous treatment with sub-lethal concentrations of β-lactam antibiotics.

## N=C(N)SCc1ccc(Cl)c(Cl)c1 [Compound 1, S-(3,4-dichlorobenzyl)isothiourea]
P. putida NBRC14164; NBRC14164, Example 2, methods as in Example 1
  MIC: 100 µg/mL (≈ 425 µM)
P. putida NBRC14164; NBRC14164, Table 1, NBRC14164
  MIC: 100 µg/mL (≈ 425 µM)
[1]; NBRC15035, Example 2, methods as in Example 1
  MIC: > 100 µg/mL
[1]; NBRC15035, Table 1, NBRC15035
  MIC: > 100 µg/mL
Caulobacter; 100 μg/ml
  Caulobacter growth and cell shape: completely blocked growth but did not cause Caulobacter to round up
Caulobacter; 0.1, 1, and 10 μg/ml
  Caulobacter growth and cell shape: both slowed cell growth and altered cell shape
[2]; 10 μg/ml
  Origin segregation in cells with T158A A22-resistant mreB allele: successfully segregated
[2]; 10 μg/ml added after 50 min, timelapse 60 min
  Locus position and rate of segregation of CC0786 and CC3192: unaffected
[2]; 10 μg/ml added to synchronized swarmer cells, 30-180 min
  Foci of origin and CC2943 loci in swarmer cells: only one focus for each locus
[2]; A22 added after origin segregation (30 min), listed as A22
  Separation of origin-distal loci (CC2943, CC3300, CC3656, CC0091): proceeded to replicate and separate their CC2943 locus into two foci; also recorded: duplicated and separated in the presence of A22
[3]
  Incorporation of radiolabeled dGTP, asynchronous cultures: does not interfere with bulk DNA synthesis
[3]; 10 μg/ml A22 or 5 mg/ml HU
  Incorporation of radiolabeled dGTP, synchronized cultures (replication initiation): slightly delayed replication initiation
[3]; 10 μg/ml, 8 hr
  DNA content by FACS: predominantly contained cells with two chromosomes
E. coli cells; JST975 liquid culture
  Lysis of E. coli cells in the absence of PBP 1B: induces cell lysis
E. coli cells; wild-type
  Lysis of wild-type E. coli cells: does not lyse
